GI50 and TGI data for 16 compounds are collected here from PubChem BioAssay (NCI).

SMILES strings stand for the structures. Several values for one entry are separate records, joined by “and”; a condition that tells them apart may be missing. Equal values may be shown once.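 Tested at 5 concentrations; 48 h exposure; 96-well plates; endpoints linearly interpolated, else capped at highest concentration. Abbreviation: GI50, concentration required for 50% inhibition of growth. The concentration for full growth arrest is given as TGI.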

Common to all, as to test: growth of human tumour cells (NCI), 48 h
Experiment [1] has as its system SW-620 colon.
Experiment [2] concerns OVCAR-8 ovarian.
Experiment [3] deals with 786-0 renal.
For experiment [4], the system named is K-562 leukemia.
The test system of experiment [5] is HCC-2998 colon.
Experiment [6] concerns UACC-62 melanoma.
The subject of experiment [7] is OVCAR-3 ovarian.
The subject of experiment [8] is SF-539 CNS.
In experiment [9] the test system is NCI-H23 lung.

Consider `CC(=O)[CH-]C(=O)c1ccccc1.CC(=O)[CH-]C(=O)c1ccccc1.COc1cccc([O-])c1[O-].[Ti+4]`, for which the GI50 was 52.6 µM in experiment [1]; 42400 nM in experiment [2]; 49000 nM in [3]; 31600 nM in experiment [4]; 90200 nM in experiment [5]; 39900 nM in experiment [6]. Moreover, the GI50 in experiment [7] was 40500 nM; in [8] it was 24400 nM. For the same compound, the TGI in experiment [1], in [2], in [3], in experiment [4], in experiment [5] and in experiment [6] was over 100 µM throughout. In addition, the results for the TGI in experiment [7] and in [8] were over 100 µM and 65.6 µM, respectively.

Turning to `CC(=O)Nc1ccc(-c2c3nc(c(-c4cc5ccccc5[n+](C)c4)c4ccc([nH]4)c(-c4ccc(NC(C)=O)cc4)c4nc(c(-c5cc6ccccc6[n+](C)c5)c5ccc2[nH]5)C=C4)C=C3)cc1`, the GI50 was 23.6 µM in [1]; 15700 nM in experiment [2]; 9970 nM in experiment [3]; 20100 nM in experiment [4]; over 50000 nM in [5]; 17300 nM in experiment [9]. For the same compound, the results for the GI50 in [6] and in experiment [7] were 23900 nM and 2370 nM, respectively. Moreover, the TGI in [1] was over 50 µM; in [2] it was over 50 µM; in [3], 35.6 µM; in experiment [4], over 50 µM; in [5], over 50 µM; in experiment [9], over 50 µM. For the same compound, the TGI in [6] is over 50 µM; in experiment [7], 12.9 µM.

On to `CC1(C)CCC[C@@]2(C)C1C[C@H](O)[C@@]1(C)O[C@@](C)([C@H](O)CO)CCC21` (stereo partly specified), for which the TGI in [1], in [2], in experiment [3], in experiment [4], in experiment [5] and in experiment [9] was over 100 µM each time. Also, the TGI was 96.1 µM in experiment [6], over 100 µM in experiment [7] and over 100 µM in experiment [8].

As to `Cc1ccc(C2CC(c3ccc([N+](=O)[O-])cc3)=Nc3ccccc3S2)cc1` (stereo unspecified), the TGI in [1] came out at 46.6 µM; in experiment [2], 72.3 µM; in [3] it was 28 µM; in [4], 41.5 µM; in experiment [5] it was 40.3 µM; in experiment [9], 77.4 µM. The TGI is over 100 µM in [6], 99.7 µM in experiment [7] and 71.9 µM in experiment [8].

On to `O=C(c1ccccc1)C(c1ccccc1)C1(O)C(=O)Nc2ccccc21` (stereo unspecified), for which the TGI in [1], in experiment [2], in experiment [3], in experiment [4], in [5] and in experiment [9] was over 100 µM throughout. Besides, the TGI in experiment [6], in experiment [7] and in experiment [8] was over 100 µM in each case.

As for `COc1c(C2=NC(C(C)C)CO2)ccc2ccccc12` (stereo unspecified), the TGI in experiment [1], in [2], in [3], in experiment [4], in experiment [5] and in experiment [9] was over 100 µM each time. For the same compound, the TGI in [6], in experiment [7] and in experiment [8] was over 100 µM each time.

`Cc1nc2ccccc2c(=O)n1/N=C(\N=Nc1cc(Cl)ccc1Cl)c1cccc(-c2ccco2)c1`: the TGI in [1] is over 100 µM; in experiment [2], over 100 µM; in experiment [3] it was over 100 µM; in [4] it was over 10 µM; in experiment [5], over 100 µM; in [9] it was over 100 µM. Further, the TGI in experiment [6], in [7] and in [8] was over 100 µM throughout.

Take `Cc1c(C(=O)CC(=O)C(=O)Nc2c(C(C)C)cccc2C(C)C)[n+](=O)c2ccccc2n1[O-]`: the TGI in experiment [1] stood at 13.2 µM; in [2], 7.38 µM; in experiment [3] it was 22.7 µM; in [4] it was 31.1 µM; in [5], 16.6 µM; in [9], 34 µM. Further, the figures for the TGI in experiment [6], in [7] and in experiment [8] were 22.3 µM, 5.29 µM and 17.5 µM, respectively.

Consider `O=C1c2ccccc2C(=O)C2C1C1C(=O)c3ccccc3C(=O)C21` (stereo unspecified), for which the TGI in experiment [1], in experiment [2], in experiment [3], in experiment [4], in experiment [5] and in experiment [9] was over 100 µM in each case. Besides, the TGI in [6], in experiment [7] and in experiment [8] was over 100 µM each time.

Consider `CCCCSN1C(=O)c2ccccc2C1=S`, for which the TGI was over 100 µM in experiment [1]; over 100 µM in experiment [2]; over 100 µM in experiment [3]; 69.5 µM in experiment [4]; over 100 µM in experiment [5]; over 100 µM in experiment [9]. For the same compound, the TGI in experiment [6], in experiment [7] and in [8] was over 100 µM in each case.

For the compound `COC1C(O)C(C)OC(OC2C(Oc3cccc4c(O)c5c(=O)oc6ccc(C)c7c(=O)oc(c34)c5c67)OC(C)C3O[C@H](c4ccccc4)OC32)C1O` (stereo partly specified), the TGI in experiment [1] is 14.3 µM; in experiment [2], 8.23 µM; in experiment [3] it was 7.16 µM; in [4], 23.2 µM; in experiment [5], 3.41 µM; in experiment [9], 4.75 µM. The TGI in experiment [6] was 1.9 µM; in experiment [7] it was 5.31 µM; in experiment [8] it was 2.23 µM. The GI50 is 309 nM and 79.8 nM in experiment [4]; 276 nM in experiment [5]; 320 nM and 200 nM in [9]; 304 nM in experiment [6]; 198 nM in experiment [8].

Regarding `COc1cc2c(c(OC)c1OC)C(=O)CC(c1cccc(NC(=O)c3ccc(Br)cc3)c1)O2` (stereo unspecified), the GI50 in experiment [1] is 3.83 µM; in experiment [2], 2900 nM; in experiment [3], 2970 nM; in [4], 1400 nM; in experiment [5], 7490 nM; in experiment [9] it was 2870 nM. The GI50 in [6] is 1570 nM; in experiment [8] it was 3860 nM. Further, the TGI is over 100 µM in experiment [1]; 9.19 µM in experiment [2]; over 100 µM in [3]; over 100 µM in experiment [4]; over 100 µM in experiment [5]; over 100 µM in experiment [9]. Further, the results for the TGI in experiment [6] and in experiment [8] were 4.09 µM and over 100 µM, respectively.

As for `CN1C(OCc2ccccc2)c2c(ccc3c2OCO3)C2C=Cc3cc4c(cc3C21)OCO4` (stereo unspecified), the TGI in [1] is 1.35 µM; in [2], 1.05 µM; in [3], 2.65 µM; in [5] it was 2.99 µM; in experiment [9] it was 2.68 µM; in [6], 2.46 µM. Also, the TGI was 1.97 µM in experiment [7] and 2.99 µM in [8].

Turning to `CN1CCN(CCCOc2cccc3nc(Nc4ccc(Cl)c(F)c4)ccc23)CC1`, the GI50 in experiment [1] was 1.97 µM; in experiment [2], 2020 nM; in experiment [3] it was 1670 nM; in experiment [5], 1520 nM; in experiment [9] it was 1750 nM; in experiment [6], 2050 nM. Also, the GI50 in experiment [7] was 1700 nM; in [8] it was 1530 nM. Moreover, the TGI came to 3.71 µM in experiment [1]; 3.65 µM in experiment [2]; 3.22 µM in experiment [3]; 3.07 µM in experiment [5]; 3.43 µM in [9]; 4.1 µM in experiment [6]. In addition, the TGI in experiment [7] is 3.29 µM; in experiment [8], 3.04 µM.

As to `O=C(/C=C1\C(=O)N(Cc2ccc([N+](=O)[O-])cc2)c2ccccc21)c1ccc(OCCN2CCCCC2)cc1`, the GI50 was 2210 nM in [2]; 1290 nM in [3]; 415 nM in experiment [4]; 1570 nM in experiment [5]; 1470 nM in [9]; 1440 nM in experiment [6]. Also, the GI50 in experiment [7] was 1250 nM; in experiment [8], 1530 nM. Further, the TGI worked out at 4.8 µM in [2]; 2.61 µM in experiment [3]; 2.2 µM in experiment [4]; 2.93 µM in experiment [5]; 2.97 µM in experiment [9]; 2.79 µM in experiment [6]. Further, the TGI in [7] amounted to 2.57 µM; in [8], 2.89 µM.

As for `C[C@@H](C1CCC2C3C(=CC(=O)[C@@]21C)[C@H](C)[C@]1(CCC(=O)O1)C1OC31)[C@H]1C[C@]2(C)O[C@@](C)(O1)OC2(C)C` (stereo partly specified), the TGI in experiment [1], in experiment [2], in [3], in experiment [4], in experiment [9] and in [6] was over 100 µM in each case. In experiment [8], the TGI was over 100 µM.
